{"source": "patent US10358436B2", "about": "“Kinase inhibitors and method of treating cancer” (University Health Network, priority 2010, dated 2019)", "note": "Structures can show the parent of a compound that is named as a salt.", "data": [{"molecular_target": "Aurora A (Homo sapiens (Human), UniProt O14965)", "sequence (O14965 whole entry)": "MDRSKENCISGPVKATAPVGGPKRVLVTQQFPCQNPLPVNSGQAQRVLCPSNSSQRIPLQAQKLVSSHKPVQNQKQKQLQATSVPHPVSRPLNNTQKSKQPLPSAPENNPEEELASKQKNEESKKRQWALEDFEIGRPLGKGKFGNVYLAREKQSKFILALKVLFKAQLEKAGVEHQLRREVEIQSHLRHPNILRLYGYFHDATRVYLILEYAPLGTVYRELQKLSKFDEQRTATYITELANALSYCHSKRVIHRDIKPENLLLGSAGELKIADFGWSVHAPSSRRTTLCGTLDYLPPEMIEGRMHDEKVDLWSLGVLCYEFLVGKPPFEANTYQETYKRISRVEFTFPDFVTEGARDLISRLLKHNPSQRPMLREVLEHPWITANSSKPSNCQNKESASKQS", "assay": "Aurora A inhibition assay (Z-Lyte)", "type": "biochemical", "units": {"inhibition at 1 µM": "%"}, "values": [{"smiles": "COc1ccc2c(c1)[C@]1(C[C@H]1c1ccc3c(-c4ccc(N5CCC(N(C)C)CC5)cc4)n[nH]c3c1)C(=O)N2", "note": "(relative stereo) [Example A119, (1R*,2S*)-2-(3-(4-(4-(dimethylamino)piperidin-1-yl)phenyl)-1H-indazol-6-yl)-5′-methoxyspiro[cyclopropane-1,3′-indolin]-2′-one 2,2,2-trifluoroacetate]", "inhibition at 1 µM": "< 50"}, {"smiles": "Cc1ccc(/C=C/c2n[nH]c3cc([C@@H]4C[C@@]45C(=O)Nc4ccccc45)ccc23)cn1", "note": "[Example A150, (1R,2S)-2-(3-((E)-2-(6-methylpyridin-3-yl)vinyl)-1H-indazol-6-yl)spiro[cyclopropane-1,3′-indolin]-2′-one]", "inhibition at 1 µM": "> 50"}, {"smiles": "CN1CCc2cc(/C=C/c3n[nH]c4cc([C@@H]5C[C@@]56C(=O)Nc5ccccc56)ccc34)ccc2C1", "note": "[Example A74, (1R,2S)-2-(3-((E)-2-(2-methyl-1,2,3,4-tetrahydroisoquinolin-6-yl)vinyl)-1H-indazol-6-yl)spiro[cyclopropane-1,3′-indolin]-2′-one 2,2,2-trifluoroacetate salt]", "inhibition at 1 µM": "> 50"}, {"smiles": "CCN1CCN(c2ccc(-c3n[nH]c4cc([C@@H]5C[C@@]56C(=O)Nc5ccc(OC)cc56)ccc34)cc2)CC1", "note": "[Example A99, (1R,2S)-2-(3-(4-(4-ethylpiperazin-1-yl)phenyl)-1H-indazol-6-yl)-5′-methoxyspiro[cyclopropane-1,3′-indolin]-2′-one 2,2,2-trifluoroacetate]", "inhibition at 1 µM": "< 50"}, {"smiles": "COc1ccc2c(c1)[C@]1(C[C@H]1c1ccc3c(/C=C/c4ccc(OCCN5CCOCC5)cc4)n[nH]c3c1)C(=O)N2", "note": "[Example A194, (1R,2S)-(E)-5′-methoxy-2-(3-(4-(2-morpholinoethoxy)styryl)-1H-indazol-6-yl)spiro[cyclopropane-1,3′-indolin]-2′-one 2,2,2-trifluoroacetate]", "inhibition at 1 µM": "> 50"}, {"smiles": "CCN(CC)Cc1c(F)cc(/C=C/c2n[nH]c3cc([C@@H]4C[C@@]45C(=O)Nc4ccc(OC)cc45)ccc23)cc1F", "note": "[Example A146, (1R,2S)-(E)-2-(3-(4-((diethylamino)methyl)-3,5-difluorostyryl)-1H-indazol-6-yl)-5′-methoxyspiro[cyclopropane-1,3′-indolin]-2′-one 2,2,2-trifluoroacetate]", "inhibition at 1 µM": "< 50"}, {"smiles": "COc1ccc2c(c1)[C@]1(C[C@H]1c1ccc3c(/C=C/c4ccc(N5CCOCC5)nc4)n[nH]c3c1)C(=O)N2", "note": "(relative stereo) [Example A213, (1R*,2S*)-5′-methoxy-2-(3-((E)-2-(6-morpholinopyridin-3-yl)vinyl)-1H-indazol-6-yl)spiro[cyclopropane-1,3′-indolin]-2′-one 2,2,2-trifluoroacetate]", "inhibition at 1 µM": "> 50"}, {"smiles": "COc1ccc2c(c1)[C@]1(C[C@H]1c1ccc3c(/C=C/c4csc(CN5CCOCC5)c4)n[nH]c3c1)C(=O)N2", "note": "(relative stereo) [Example A184, (1R*,2S*)-5′-methoxy-2-(3-((E)-2-(5-(morpholinomethyl)thiophen-3-yl)vinyl)-1H-indazol-6-yl)spiro[cyclopropane-1,3′-indolin]-2′-one 2,2,2-trifluoroacetate]", "inhibition at 1 µM": "> 50"}, {"smiles": "O=C1Nc2ccccc2[C@]12C[C@H]2c1ccc2c(/C=C/c3ccc(CN4CCCC4)cc3)n[nH]c2c1", "note": "(relative stereo) [Example A60, (1R*,2S*)-(E)-2-(3-(4-(pyrrolidin-1-ylmethyl)styryl)-1H-indazol-6-yl)spiro[cyclopropane-1,3′-indolin]-2′-one 2,2,2-trifluoroacetate]", "inhibition at 1 µM": "> 50"}, {"smiles": "CN1C(=O)[C@@]2(C[C@H]2c2ccc3c(/C=C/c4ccc(CN5CCCC5)cc4)n[nH]c3c2)c2ccccc21", "note": "[Example A115, (1R,2S)-(E)-1′-methyl-2-(3-(4-(pyrrolidin-1-ylmethyl)styryl)-1H-indazol-6-yl)spiro[cyclopropane-1,3′-indolin]-2′-one 2,2,2-trifluoroacetate]", "inhibition at 1 µM": "< 50"}]}]}
